# Laboratory results as given in US10457687B2, “Aminoacid derivatives, a process for their preparation and pharmaceutical compositions containing them” (LES LABORATOIRES SERVIER, priority 2015, dated 2019).
# Molecular target: Mcl-1 protein (Homo sapiens, UniProt Q07820)
# Experiment: Inhibition of Mcl-1 by the fluorescence polarisation technique (Method 1 or Method 2)
# Format: binding
# Details: fluorescence polarisation, Fluorescein labelled ligand; Method 1 (not underlined) or Method 2 (underlined); read-out: IC50 (μM) Mcl-1 FP
# Outline: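 Binding measured by FP, with Mcl-1 protein and fluorescein-labelled ligand mixed with compounds in an 11-point series at 5% final DMSO. Method 2 used 10 nM each of protein and ligand in phosphate buffer (20 mM Na2HPO4, 1 mM EDTA, 50 mM NaCl, pH 7.4); Method 1 used 5 nM protein, 1 nM ligand in HEPES buffer (10 mM HEPES, 150 mM NaCl, 0.05% Tween 20, pH 7.4).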
# Sequence of Mcl-1 protein (Q07820 whole entry): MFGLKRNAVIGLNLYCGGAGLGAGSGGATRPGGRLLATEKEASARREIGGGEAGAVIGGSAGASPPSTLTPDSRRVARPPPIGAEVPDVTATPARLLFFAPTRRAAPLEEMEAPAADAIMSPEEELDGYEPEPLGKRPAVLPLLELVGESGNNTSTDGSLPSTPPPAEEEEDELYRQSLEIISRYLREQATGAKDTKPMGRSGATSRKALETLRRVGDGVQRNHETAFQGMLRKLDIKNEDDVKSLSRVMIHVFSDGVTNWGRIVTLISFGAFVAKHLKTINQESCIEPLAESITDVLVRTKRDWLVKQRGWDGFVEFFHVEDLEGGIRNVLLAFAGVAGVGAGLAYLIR
row,Compound,IC50
1,"CCc1sc2ncnc(NC(Cc3cccnc3)C(=O)O)c2c1-c1cccc2ccccc12 [Example 163, N-[6-ethyl-(5Ra)-5-(naphthalen-1-yl)thieno[2,3-d]pyrimidin-4-yl]-3-pyridin-3-yl-D-alanine]",8.37 µM
2,"CCc1sc2ncnc(N[C@H](CCc3ccccc3)C(=O)O)c2c1-c1cccc2ccccc12 [Example 169, (2R)-2-{[6-ethyl-5-(naphthalen-1-yl)thieno[2,3-d]pyrimidin-4-yl]amino}-4-phenylbutanoic acid]",2.1 µM
3,"CCc1sc2ncnc(NC(CCc3ccccc3)C(=O)O)c2c1-c1cccc2ccccc12 [Example 171, (2R)-2-{[6-ethyl-(5Ra)-5-(naphthalen-1-yl)thieno[2,3-d]pyrimidin-4-yl]amino}-4-phenylbutanoic acid]",2.77 µM
4,"CCc1sc2ncnc(NC(Cc3ccc(O)cc3)C(=O)O)c2c1-c1cccc2ccccc12 [Example 172, N-[6-ethyl-(5Ra)-5-(naphthalen-1-yl)thieno[2,3-d]pyrimidin-4-yl]-D-tyrosine]",28.8 µM
5,"CCc1sc2ncnc(NC(Cc3ccc(O)cc3)C(=O)O)c2c1-c1cccc2ccccc12 [Example 173, N-[6-ethyl-(5Sa)-5-(naphthalen-1-yl)thieno[2,3-d]pyrimidin-4-yl]-D-tyrosine]",6.79 µM
6,"CCc1sc2ncnc(NC(Cc3ccccc3O)C(=O)O)c2c1-c1cccc2ccccc12 [Example 175, N-[6-ethyl-(5Ra)-5-(naphthalen-1-yl)thieno[2,3-d]pyrimidin-4-yl]-2-hydroxy-D-phenylalanine]",3.86 µM
7,"CCc1sc2ncnc(NC(Cc3ccc(F)cc3)C(=O)O)c2c1-c1cccc2ccccc12 [Example 176, N-[6-ethyl-(5Ra)-5-(naphthalen-1-yl)thieno[2,3-d]pyrimidin-4-yl]-4-fluoro-D-phenylalanine]",8.41 µM
8,"CCc1sc2ncnc(NC(Cc3cccc(F)c3)C(=O)O)c2c1-c1cccc2ccccc12 [Example 178, N-[6-ethyl-(5Ra)-5-(naphthalen-1-yl)thieno[2,3-d]pyrimidin-4-yl]-3-fluoro-D-phenylalanine]",3.23 µM
9,"CCc1sc2ncnc(NC(Cc3c[nH]c4ccccc34)C(=O)O)c2c1-c1cccc2ccccc12 [Example 185, N-[6-ethyl-(5Sa)-5-(naphthalen-1-yl)thieno[2,3-d]pyrimidin-4-yl]-D-tryptophan]",2.53 µM
10,"CCc1sc2ncnc(N[C@H](Cc3c[nH]cn3)C(=O)O)c2c1-c1cccc2ccccc12 [Example 190, N-[6-ethyl-5-(naphthalen-1-yl)thieno[2,3-d]pyrimidin-4-yl]-D-histidine]",34.6 µM
11,"CCc1sc2ncnc(N[C@H](Cc3ccncc3)C(=O)O)c2c1-c1cccc2ccccc12 [Example 193, N-[6-ethyl-5-(naphthalen-1-yl)thieno[2,3-d]pyrimidin-4-yl]-3-pyridin-4-yl-D-alanine]",36.5 µM
12,"CCc1sc2ncnc(N[C@H](Cc3cn(Cc4ccccc4)cn3)C(=O)O)c2c1-c1cccc2ccccc12 [Example 195, 1-benzyl-N-[6-ethyl-5-(naphthalen-1-yl)thieno[2,3-d]pyrimidin-4-yl]-D-histidine]",14.2 µM
13,"Cc1sc2ncnc(N[C@H](Cc3ccccc3)C(=O)O)c2c1-c1cccc2ccccc12 [Example 196, N-[6-methyl-5-(naphthalen-1-yl)thieno[2,3-d]pyrimidin-4-yl]-D-phenylalanine]",2.91 µM
14,"O=C(O)C(Cc1ccccc1)Nc1ncnc2sc(CO)c(-c3cccc4ccccc34)c12 [Example 198, N-[6-(hydroxymethyl)-(5Sa)-5-(naphthalen-1-yl)thieno[2,3-d]pyrimidin-4-yl]-D-phenylalanine]",9.86 µM
15,"CC(=O)c1sc2ncnc(NC(Cc3ccccc3)C(=O)O)c2c1-c1cccc2ccccc12 [Example 200, N-[6-acetyl-(5Ra)-5-(naphthalen-1-yl)thieno[2,3-d]pyrimidin-4-yl]-D-phenylalanine]",5.44 µM

# Next, values leading:
row,IC50,Compound
1,2.1 µM,"CCc1sc2ncnc(NC(Cc3ccccc3F)C(=O)O)c2c1-c1cccc2ccccc12 [Example 180, N-[6-ethyl-(5Ra)-5-(naphthalen-1-yl)thieno[2,3-d]pyrimidin-4-yl]-2-fluoro-D-phenylalanine]"
2,2.08 µM,"CCc1sc2ncnc(N[C@H](Cc3cccnc3)C(=O)O)c2c1-c1cccc2ccccc12 [Example 192, N-[6-ethyl-5-(naphthalen-1-yl)thieno[2,3-d]pyrimidin-4-yl]-3-pyridin-3-yl-D-alanine]"
3,2.04 µM,"CCc1sc2ncnc(N[C@H](Cc3ccccc3Cl)C(=O)O)c2c1-c1cccc2ccccc12 [Example 183, 2-chloro-N-[6-ethyl-5-(naphthalen-1-yl)thieno[2,3-d]pyrimidin-4-yl]-D-phenylalanine]"
4,1.77 µM,"CCc1sc2ncnc(N[C@H](CC3CC3)C(=O)O)c2c1-c1cccc2ccccc12 [Example 159, 3-cyclopropyl-N-[6-ethyl-5-(naphthalen-1-yl)thieno[2,3-d]pyrimidin-4-yl]-D-alanine]"
5,1.75 µM,"CCc1sc2ncnc(N[C@H](Cc3cn(C)cn3)C(=O)O)c2c1-c1cccc2ccccc12 [Example 194, N-[6-ethyl-5-(naphthalen-1-yl)thieno[2,3-d]pyrimidin-4-yl]-1-methyl-D-histidine]"
6,0.957 µM,"CCc1sc2ncnc(NC(Cc3ccc(F)cc3)C(=O)O)c2c1-c1cccc2ccccc12 [Example 177, N-[6-ethyl-(5Sa)-5-(naphthalen-1-yl)thieno[2,3-d]pyrimidin-4-yl]-4-fluoro-D-phenylalanine]"
7,0.955 µM,"CCc1sc2ncnc(NC(CCc3ccccc3)C(=O)O)c2c1-c1cccc2ccccc12 [Example 170, (2R)-2-{[6-ethyl-(5Sa)-5-(naphthalen-1-yl)thieno[2,3-d]pyrimidin-4-yl]amino}-4-phenylbutanoic acid]"
8,0.881 µM,"CCc1sc2ncnc(NC(Cc3cccc(F)c3)C(=O)O)c2c1-c1cccc2ccccc12 [Example 179, N-[6-ethyl-(5Sa)-5-(naphthalen-1-yl)thieno[2,3-d]pyrimidin-4-yl]-3-fluoro-D-phenylalanine]"
9,0.597 µM,"CCc1sc2ncnc(NC(Cc3cccnc3)C(=O)O)c2c1-c1cccc2ccccc12 [Example 162, N-[6-ethyl-(5Sa)-5-(naphthalen-1-yl)thieno[2,3-d]pyrimidin-4-yl]-3-pyridin-3-yl-D-alanine]"
10,0.466 µM,"CCc1sc2ncnc(NC(Cc3ccccc3O)C(=O)O)c2c1-c1cccc2ccccc12 [Example 174, N-[6-ethyl-(5Sa)-5-(naphthalen-1-yl)thieno[2,3-d]pyrimidin-4-yl]-2-hydroxy-D-phenylalanine]"
11,0.407 µM,"CCc1sc2ncnc(N[C@H](Cc3ccccc3OC)C(=O)O)c2c1-c1cccc2ccccc12 [Example 182, N-[6-ethyl-5-(naphthalen-1-yl)thieno[2,3-d]pyrimidin-4-yl]-2-methoxy-D-phenylalanine]"
12,0.315 µM,"CCc1sc2ncnc(NC(CC3CCCCC3)C(=O)O)c2c1-c1cccc2ccccc12 [Example 165, 3-cyclohexyl-N-[6-ethyl-(5Ra)-5-(naphthalen-1-yl)thieno[2,3-d]pyrimidin-4-yl]-D-alanine]"
13,0.309 µM,"CCc1sc2ncnc(NC(Cc3ccccc3OCCN(C)C)C(=O)O)c2c1-c1cccc(Cl)c1C [Example 156, N-[(5Sa)-5-(3-chloro-2-methylphenyl)-6-ethylthieno[2,3-d]pyrimidin-4-yl]-2-[2-(dimethylamino)ethoxy]-D-phenylalanine]"
14,0.299 µM,"CCc1sc2ncnc(NC(Cc3ccccc3F)C(=O)O)c2c1-c1cccc2ccccc12 [Example 181, N-[6-ethyl-(5Sa)-5-(naphthalen-1-yl)thieno[2,3-d]pyrimidin-4-yl]-2-fluoro-D-phenylalanine]"
15,0.298 µM,"CC(=O)c1sc2ncnc(NC(Cc3ccccc3)C(=O)O)c2c1-c1cccc2ccccc12 [Example 199, N-[6-acetyl-(5Sa)-5-(naphthalen-1-yl)thieno[2,3-d]pyrimidin-4-yl]-D-phenylalanine]"
16,0.227 µM,"CCc1sc2ncnc(N[C@H](CC3CCCCC3)C(=O)O)c2c1-c1cccc2ccccc12 [Example 164, 3-cyclohexyl-N-[6-ethyl-5-(naphthalen-1-yl)thieno[2,3-d]pyrimidin-4-yl]-D-alanine]"
17,0.171 µM,"CCc1sc2ncnc(N[C@H](Cc3ccccn3)C(=O)O)c2c1-c1cccc2ccccc12 [Example 191, N-[6-ethyl-5-(naphthalen-1-yl)thieno[2,3-d]pyrimidin-4-yl]-3-pyridin-2-yl-D-alanine]"
18,0.104 µM,"CCc1sc2ncnc(NC(Cc3ccccc3OCCCN(C)C)C(=O)O)c2c1-c1cccc(Cl)c1C [Example 158, N-[(5Sa)-5-(3-chloro-2-methylphenyl)-6-ethylthieno[2,3-d]pyrimidin-4-yl]-2-[3-(dimethylamino)propoxy]-D-phenylalanine]"
19,0.064 µM,"CCc1sc2ncnc(NC(CC3CCCCC3)C(=O)O)c2c1-c1cccc2ccccc12 [Example 166, 3-cyclohexyl-N-[6-ethyl-(5Sa)-5-(naphthalen-1-yl)thieno[2,3-d]pyrimidin-4-yl]-D-alanine]"

# Same assay, conditions: partial inhibitors; @ 50 μM test compound
row,"percentage fluorescence polarisation inhibition, Mcl-1 FP",Compound
1,62.05% @ 50 μM,"CCc1sc2ncnc(N[C@H](Cc3ccccc3OCCCN(C)C)C(=O)O)c2c1-c1cccc(Cl)c1C [Example 157, N-[(5Ra)-5-(3-chloro-2-methylphenyl)-6-ethylthieno[2,3-d]pyrimidin-4-yl]-2-[3-(dimethylamino)propoxy]-D-phenylalanine]"

# Same assay, conditions: partial inhibitors; @ 200 μM test compound
row,"percentage fluorescence polarisation inhibition, Mcl-1 FP",Compound
1,76.8% @ 200 μM,"CCc1sc2ncnc(N[C@H](Cc3c[nH]c4ccccc34)C(=O)O)c2c1-c1cccc2ccccc12 [Example 184, N-[6-ethyl-(5Ra)-5-(naphthalen-1-yl)thieno[2,3-d]pyrimidin-4-yl]-D-tryptophan]"
2,54.1% @ 200 μM,"O=C(O)[C@@H](Cc1ccccc1)Nc1ncnc2sc(CO)c(-c3cccc4ccccc34)c12 [Example 197, N-[6-(hydroxymethyl)-(5Ra)-5-(naphthalen-1-yl)thieno[2,3-d]pyrimidin-4-yl]-D-phenylalanine]"
